This is an account of results in US12697277B2, “Materials and methods for mitigating the presence of nitrosamines in packaging using an active agent” (CSP TECHNOLOGIES, INC., priority 2024, dated 2026).

Series [1] in a line: Effect of active agent (sachet or film) on nitrite in GC vial headspace, cyclohexene derivative method. The following applies: 50 mg active in sachet hanging in GC vial headspace over sulfuric acid + potassium nitrite; 24 hours at 60° C. It is filed as physicochemical. The procedure:
A 1 inch×0.5 inch tea bag sachet containing 50 mg±2 mg of a potential active agent, or a 1 cm^2 film was placed hanging in a GC vial headspace. […] 1 mL of 1M sulfuric acid solution and 1 mL of potassium nitrite solution (1 g/10 mL) was placed into the GC vial. The film or sachet was placed suspended inside the GC vial, and sealed, and aged for 24 hours at 60° C. GC-MS was conducted on the headspace using the derivative method. The methodology is based on a chemically derivative method that reacts all available NOx or nitrite directly into a measurable compound (cyclohexene) using acidified sodium cyclamate. The reaction is shown below:
It will be understood that both the nitrite anion (NO2^−) and […] (HNO2), with the relative amounts being determined by solution pH, will be quantified by this method, and gaseous NOx can also be quantified, due to its equilibrium with aqueous phase species. For simplicity, results of this test may be described as measuring the amount of nitrite.

The nature of series [2]: NO2 adsorption by raw active and film, fixed bed reactor. In kind it is physicochemical. As to conditions: raw active, 250 mg, 22° C.; for NO2 Adsorbed Amount: 505 ppm of NO2. On the procedure: (§1) NO and NO2 adsorption experiments were conducted within a fixed bed reactor at 22° C. In each experimental run, 250 mg of the sample was meticulously deposited onto a fused silica frit positioned within a vertical quartz reactor, which boasted an internal diameter of 6 mm. Prior to each experiment, the system underwent a thorough purge using nitrogen (N) to eliminate any residual gases and ensure a clean starting point. Following the purge, calibration procedures were meticulously carried out to guarantee the accuracy of the concentration measurements. This involved precisely calibrating the ROSEMOUNT NGA 2000 detector to establish a reliable baseline for the subsequent experiments. […] Throughout the experiments, the concentrations of outlet gases, namely NO and NO2, were continuously monitored. This real-time analysis was facilitated by the highly sensitive ROSEMOUNT NGA 2000 detector (St. Louis, MO, USA). To account for any background signals or potential interferences, a blank experiment was conducted using an empty reactor. The obtained results from this blank experiment were subtracted from the measurements of the sample, ensuring that the recorded concentrations accurately reflected the adsorption behavior of NO2 by the sample. This meticulous approach enhances the reliability and precision of the experimental findings.

The conditions of series [3]: FDA acceptable intake limit; cited from earlier work.
The nature of series [4]: Effect of raw active on nitrite, headspace GC (modified FDA protocol). As to conditions: raw active 50 mg in GC vial with sulfuric acid + potassium nitrite, 24 hours at 60° C., estimated ppm of nitrous acid in headspace. It is filed as physicochemical. The procedure:
The active sachet was placed inside the GC vial and sealed and aged for 24 hours at 60° C. Controls only contained the liquid. GC was conducted on the headspace using a modified version of the FDA protocol for GC-MS/MS to detect nitrite. […] Food & Drug Administration (FDA), Apr. 29, 2019, published online.

Series [5] in a line: Film and sachet comparison in monolayer bottles: nitrite. As to conditions: raw active in sachet in monolayer bottle; 60° C., 40% RH, 6 days. It is filed as physicochemical. On the procedure: For raw active samples, the appropriate mass was weighed as shown in Table 20 and was placed in a sachet which was closed. Films were cut to 120 mm×65 mm. Film thickness was from about 0.3 mm to about 1.2 mm.
A 20 mL scintillation vial was placed in each bottle. 3.5 mL of potassium nitrite and 3.5 mL of sulfuric acid were added to the scintillation vial. GC-MS was conducted on the headspace using the cyclohexene derivative method for nitrite. Samples were aged at 60° C. and 40% RH for 6 days.

Series [6] in a line: NO adsorption by raw active and film, fixed bed reactor. In kind it is physicochemical. The following applies: raw active, 250 mg, 22° C. On the procedure: as §1
A short description of series [7]: Raw active and film studies with propranolol: Nitroso-propranolol (NPO) by LC-MS. It is filed as physicochemical. The following applies: raw active 5 g in pouch in 250 ml bottle with 1 g propranolol; 50° C./75% RH, 4 weeks. The procedure: Raw active or film with active were tested in 250 ml bottles with 1 g of propranolol (beads), to measure formation of Nitroso-propranolol (NPO). When present, the film (2 pieces of A2×2 inches) was wrapped inside bottle(s). Raw active (5 g) was placed in a pouch inside bottle(s).
Humidity was provided by vials containing a salt solution: ASAPprime™ vials (FreeThink Technologies, Branford CT, USA). A screw cap was used, with no induction seal.
NPO was directly measured by LC-MS (liquid chromatography-mass spectroscopy). The detection limit is approximately 1% of the results reported.

The conditions of series [8]: acceptable intake of the nitrosamine per day; cited from earlier work.
The nature of series [9]: Maximum daily dose (MDD) and acceptable intake (AI) for each nitrosamine formed by each drug.

In the case of Sodium Alginate, the “Nitrite (% decrease)” value in series [1] is listed as 27.7%.
Consider `COc1cc(/C=C/C(=O)O)ccc1O` [Ferulic Acid], for which, in series [1], the “Nitrite (% decrease)” value worked out at 61.7%. Moreover, the “NO2 Adsorbed Amount” value in series [2] is recorded as 3.27 mg/g.
Regarding `CCN(N=O)C(C)C` [NIPEA], the “AI Limit” value in series [3] is 26.5 ng/day.
As to Vitamin A, the “Nitrite (% decrease)” value in series [1] was 11.3%.
For the compound `CN(CCCC(=O)O)N=O` [NMBA], in series [3], the “AI Limit” value is 96 ng/day.
On to `O=C1O[C@H]([C@@H](O)CO)C(O)=C1O` [Ascorbic Acid, L-ascorbic acid], for which the “Nitrite (% decrease)” value in series [1] is 23.7%; in [5], −111.1%. Moreover, the results for the “Nitrite (ppm)” value in [4] and in series [4] (listed as Ascorbic acid) were 0.08 ppm and “most effective raw active at decreasing the level of nitrite”, respectively. The “NO Adsorbed Amount” value in [6] is listed as 0.14 mg/g. Besides, in [2], the “NO2 Adsorbed Amount” value is reported as 2.50 mg/g. The “NPO (% Decrease)” value in series [7] came out at 9%.
Consider `CC1=C(/C=C/C(C)=C/C=C/C(C)=C/C=C/C=C(C)/C=C/C=C(C)/C=C/C2=C(C)C(=O)[C@@H](O)CC2(C)C)C(C)(C)C[C@H](O)C1=O` [Astaxanthin], for which the “Nitrite (% decrease)” value in [1] was found to be 35.0%.
As to `N[C@@H](CS)C(=O)O` [L-cysteine], in series [7], the “NPO (% Decrease)” value is 2%.
With `O=C(O)/C=C/c1ccc(O)c(O)c1` [Caffeic Acid], the “Nitrite (% decrease)” value in series [1] is reported as 31.6%.
On the same count and under the same terms, the result for `Cl` [Hydrochloric Acid] reads 14.4%.
Still for that read-out and setting: the result for `O=S(=O)([O-])[O-].[Ca+2]` [Calcium Sulfate] reads 22.2%.
In the case of `CN(C)N=O` [NDMA, N-nitrosodimethylamine], the AI /day in series [8] is recorded as 96 ng. In addition, the “AI Limit” value in series [3] is reported as 96 ng/day. The “AI (ppm)” value in series [9] (Ranitidine, MDD 320 mg) came out at 0.3 ppm.
For `O=NN1CCC(c2ccccc2)CC1` [1-nitroso-4-phenylpiperdine], the “AI (ppm)” value in series [9] (4-Phenylpiperdine (CPCA Calculated), MDD (ketophrofen) 200 mg) is recorded as 2 ppm; in series [9] (4-Phenylpiperdine (CPCA Calculated), MDD (meperide) 600 mg), 0.67 ppm; in series [9] (4-Phenylpiperdine (CPCA Calculated), MDD (pethidine) 400 mg) it was 1 ppm. In addition, the “average AI” value in series [9] (average of the three MDD-based values) amounted to 1.2 ppm.
Take `O=C([O-])[O-].[Mg+2]` [Magnesium Carbonate]: the “Nitrite (% decrease)” value in series [1] was 33.9%. In series [2], the “NO2 Adsorbed Amount” value is reported as 8.03 mg/g.
For `CC(C)N(N=O)C(C)C` [NDIPA, N-nitrosodi-2-propylamine], in [3], the “AI Limit” value is reported as 26.5 ng/day.
Vitamin E: the results for the “Nitrite (% decrease)” value in series [1] and in [5] were 89.8% and 31.6%, respectively. In addition, the “NO Adsorbed Amount” value in [6] amounted to 0.16 mg/g. Besides, the “NO2 Adsorbed Amount” value in [2] stood at 4.95 mg/g.
In the case of `O=C([O-])O.[Na+]` [Sodium Bicarbonate], the results for the “Nitrite (% decrease)” value in series [1] and in series [5] were 57.7% and 72.8%, respectively. The “NO Adsorbed Amount” value in [6] was 0.14 mg/g. Further, in series [2], the “NO2 Adsorbed Amount” value is given as 2.24 mg/g.
On to `O=C([O-])[O-].[Ca+2]` [Calcium Carbonate], for which the “Nitrite (% decrease)” value in [1] worked out at 46.9%. Further, the “NO Adsorbed Amount” value in [6] was found to be 0.15 mg/g. The “NO2 Adsorbed Amount” value in series [2] stood at 7.75 mg/g. In [2] (505 ppm of NO2, listed as calcium carbonate), the “NO2 Adsorbed Amount (mg/g)” value is listed as “most effective NO2 adsorber from amongst the raw actives tested”.
For `O=C1O[C@H]([C@@H](O)CO)C([O-])=C1O.[Na+]` [Sodium Ascorbate], in series [7], the “NPO (% Decrease)” value was found to be 9%.
On to `[Cl-].[Na+]` [Sodium Chloride], for which the “Nitrite (% decrease)” value is reported as 86.8% in series [1] and 99.9% in series [5]. Besides, in series [6], the “NO Adsorbed Amount” value was found to be 0.34 mg/g. The “NO2 Adsorbed Amount” value in [2] came to 2.00 mg/g.
Regarding `COC1=C(OC)C(=O)C(C/C=C(\C)CC/C=C(\C)CC/C=C(\C)CC/C=C(\C)CC/C=C(\C)CC/C=C(\C)CC/C=C(\C)CC/C=C(\C)CC/C=C(\C)CCC=C(C)C)=C(C)C1=O` [Coenzyme Q10], the “Nitrite (% decrease)” value in series [1] was −7.8%.
Turning to `Nc1ccc(C(=O)O)cc1` [4-aminobenzonic acid], the “NPO (% Decrease)” value in series [7] turned out to be 7%.
Regarding `CCN(CC)N=O` [NDEA, N-nitrosodiethylamine], in series [3], the “AI Limit” value is given as 26.5 ng/day.
Turning to `CN(CC(O)c1cccc(O)c1)N=O` (stereo not drawn) [1-nitroso-phenylephrine], in series [8], the AI /day is on record as 100 ng. Also, in [9] (Phenylephrine, MDD 60 mg), the “AI (ppm)” value is given as 1.67 ppm.
Take `OC[C@H]1O[C@@H]2O[C@H]3[C@H](O)[C@@H](O)[C@@H](O[C@H]4[C@H](O)[C@@H](O)[C@@H](O[C@H]5[C@H](O)[C@@H](O)[C@@H](O[C@H]6[C@H](O)[C@@H](O)[C@@H](O[C@H]7[C@H](O)[C@@H](O)[C@@H](O[C@H]8[C@H](O)[C@@H](O)[C@@H](O[C@H]1[C@H](O)[C@H]2O)O[C@@H]8CO)O[C@@H]7CO)O[C@@H]6CO)O[C@@H]5CO)O[C@@H]4CO)O[C@@H]3CO` [Beta Cyclodextrin Powder, Beta Cyclodextrin]: in [1], the “Nitrite (% decrease)” value is reported as 25.6%. Also, in series [2], the “NO2 Adsorbed Amount” value worked out at 2.96 mg/g.
As to `CC(C)=CCC/C(C)=C/C=C/C(C)=C/C=C/C(C)=C/C=C/C=C(C)/C=C/C=C(C)/C=C/C=C(\C)CCC=C(C)C` [Lycopene], the “Nitrite (% decrease)” value in [1] stood at 23.7%.
Turning to `CC1=C(/C=C/C(C)=C/C=C/C(C)=C/C=C/C=C(C)/C=C/C=C(C)/C=C/C2=C(C)C[C@@H](O)CC2(C)C)C(C)(C)C[C@H](O)C1` [Zeaxanthin], the “Nitrite (% decrease)” value in series [1] was 26.6%.
The same measure, in the same setting: the result for `[Cl-].[Cl-].[Mg+2]` [Magnesium Chloride] reads −15.7%.
For `CCCOC(=O)c1cc(O)c(O)c(O)c1` [Propyl Gallate], the “Nitrite (% decrease)” value in [1] is given as 3.2%.
On the same count and under the same terms, the result for `[O]=[Fe][O][Fe]=[O]` [Ferric Oxide] reads 14.3%.
